From patent publication US20220265712A1, “POPULATIONS OF NATURAL KILLER CELLS FOR TREATING CANCERS” (CELULARITY INC., priority 2019, published 2022)
Read-outs that look alike come from different tables or passages of the source.

Key:
CD34+ cells [1] = assay: NK cell expansion from CD34+ cells cultured with CRL compounds (three-stage NK culture, Day 35); assay type: cell-based, human; conditions: 10 μM; for expansion compared to SR1 / cell expansion, rank among all the compounds: Day 35; for expansion compared to SR1: SR1 10 μM positive control; for expansion, differentiation and cytotoxicity profiles compared to SR1: PNK-007 culture
Description: (§1) UCB CD34+ cells were cultivated in presence of cytokines including thrombopoietin, SCF, Flt3 ligand, IL-7, IL-15 and IL-2 for 35 days to produce three-stage NK cells, as described in Example 1. Multi-color flow cytometry was used to determine the phenotypic characteristics of three-stage NK cells.
(§2) For biological testing, the compounds were provided to culture to evaluate their effects on NK cell expansion and differentiation. Specifically, donors of CD34+ cells (StemCell Technology) were thawed and expanded in vitro following NK culture protocol. During the first 14 days of the culture, each CRL compounds was dissolved in DMSO and added to the culture at 10 μM concentration. SR1 (at 10 μM) served as a positive control compound, while DMSO alone without any compound served as a negative control. At the end of the culture on Day 35, cell expansion, natural killer (NK) cell differentiation and cytotoxicity of the cells against K562 tumor cell line were characterized. Due to the large number of the compounds, the testing was performed in two experiments, CRL1-11 and CRL 12-22. The same donors were used for each experiment. Positive and negative controls were also included in both experiments.

CD34+ cells [2] = assay: NK cell differentiation of compound cultured cells (flow cytometry); assay type: cell-based, human; conditions: compared to SR1
Description: as §1, §2

K562 tumor cells = assay: Cytotoxicity assay of compound cultured cells against K562 tumor cells; assay type: cell-based; conditions: 10:1 effector to target ratio; both donors
Method: as §2
Cytotoxicity assay was run using compound cultured cells against K562 tumor cells at 10:1 effector to target ratio (FIG. 5) to evaluate cell functions.

CD34 cells = assay: CD34 cell expansion at Day 14 of the culture; assay type: cell-based, human; conditions: 10 μM
Method: as §2

NDMM patients = conditions: cited from earlier work

SMILES | expansion compared to SR1 (CD34+ cells [1]) | CD56+/CD11a+ subpopulation (CD34+ cells [2]) | killing activities compared to cells cultured with SR1 (K562 tumor cells) | cell expansion, rank among all the compounds (CD34+ cells [1]) | expansion, differentiation and cytotoxicity profiles compared to SR1 (CD34+ cells [1]) | CD34 cell expansion (CD34 cells) | other results
CC(C)c1csc2c(NCCc3c[nH]c4ccccc34)nc(-c3cncc(C#N)c3)nc12 [CRL17, 5-(4-((2-(1H-indol-3-yl)ethyl)amino)-7-isopropylthieno[3,2-d]pyrimidin-2-yl)nicotinonitrile] | slightly less expansion compared to SR1 | increased CD56+/CD11a+ subpopulation | increased killing activities of the cells |  |  |  | 
CC(C)c1csc2c(NCCc3c[nH]c4ccccc34)nc(-c3cncc(F)c3)nc12 [CRL18, N-(2-(1H-indol-3-yl)ethyl)-2-(5-fluoropyridin-3-yl)-7-isopropylthieno[3,2-d]pyrimidin-4-amine] | slightly less expansion compared to SR1 | increased CD56+/CD11a+ subpopulation | increased killing activities of the cells |  |  |  | 
Fc1cncc(-c2nc(NCCc3c[nH]c4ccccc34)c3occc3n2)c1 [CRL19, N-(2-(1H-indol-3-yl)ethyl)-2-(5-fluoropyridin-3-yl)furo[3,2-d]pyrimidin-4-amine] |  |  |  | supported cell expansion the best | very similar expansion, differentiation and cytotoxicity profiles as SR1 | achieved the highest CD34 cell expansion | 
Cc1cncc(-c2nc(NCCc3c[nH]c4ccccc34)c3occc3n2)c1 [CRL20, N-(2-(1H-indol-3-yl)ethyl)-2-(5-methylpyridin-3-yl)furo[3,2-d]pyrimidin-4-amine] |  |  |  | supported cell expansion the best | very similar expansion, differentiation and cytotoxicity profiles as SR1 | achieved the highest CD34 cell expansion | 
Cc1cncc(-c2nc(NCCc3c[nH]c4ccccc34)c3scc(C(C)C)c3n2)c1 [CRL21, N-(2-(1H-indol-3-yl)ethyl)-7-isopropyl-2-(5-methylpyridin-3-yl)thieno[3,2-d]pyrimidin-4-amine] | slightly less expansion compared to SR1 | increased CD56+/CD11a+ subpopulation | increased killing activities of the cells |  |  |  | 
N#Cc1cncc(-c2nc(NCCc3c[nH]c4ccccc34)c3occc3n2)c1 [CRL22, 5-(4-((2-(1H-indol-3-yl)ethyl)amino)furo[3,2-d]pyrimidin-2-yl)nicotinonitrile] |  |  |  | supported cell expansion the best | very similar expansion, differentiation and cytotoxicity profiles as SR1 | achieved the highest CD34 cell expansion | 
Nc1cccc2c1CN(C1CCC(=O)NC1=O)C2=O (stereo not shown) [lenalidomide, 3-(4′ aminoisoindoline-1′-one)-1-piperidine-2,6-dione] |  |  |  |  |  |  | ORR (VGPR or better) (NDMM patients; 1 year post ASCT): 48%; ORR (VGPR or better) (NDMM patients; 2 year post ASCT): 36%; hazard ratio for TTP versus placebo (NDMM patients; 95% CI 0.46-0.71, p<0.0001): 0.57; median TTP (NDMM patients; 95% CI 44.2-73.3, not accounting for crossover): 57.3 months
